{"source": "patent US4611056A", "about": "“Benzo[A]phenothiazines and hydro-derivatives” (Merck Frosst Canada, Inc., priority 1985, dated 1986)", "key": {"asthmatic rat": {"test_system": "asthmatic rat", "assay": "certain biological tests, amorphous versus crystalline material", "type": "in vivo", "description": "Representative results comparing the two forms of the compound are shown in the accompanying Table IV (where doses are in mg/kg, p.o.)."}, "[1]": {"test_system": "duration of dyspnoea in asthmatic rats (egg albumin challenge)", "assay": "Asthmatic Rat Assay", "type": "in vivo", "conditions": "for ED50 (Asthmatic Rat Assay): p.o."}, "[2]": {"assay": "NMR study of equilibration of conformational isomers in solution", "type": "physicochemical", "conditions": "upon dissolution at room temperature (DMF-d7)", "procedure": "In particular, the methyl group of the acetyl unit appears as four sharp singlets, of approximately equal intensity, at 1.89, 1.91, 1.99 and 2.28 parts per million (ppm).\nIn another experiment, a sample of the crystalline compound was dissolved in DMF-d7, pre-cooled to -50° C., and the NMR spectrum taken quickly at -50° C. […] As the sample was warmed, these two signals coalesced to a singlet at about 30° C. (1.91 ppm); at about 80° C., a second singlet appeared (2.04 ppm), and at 170° C., these two singlets began to coalesce.\nIn another NMR study of the compound, five samples were dissolved in DMF-d7 at 25° C., and then stored at -78° C., after being held for 0, 5, 15, 30 and 60 minutes at 25° C.\nAs a result of the x-ray and NMR studies, it is concluded that there is a single conformational isomer of compound XVIII present in the crystalline form, and that this isomer equilibrated, upon dissolution at room temperature, over a period of approximately one hour, to a mixture of at least four observable conformational isomers which may possibly be represented as follows: [drawing 50]"}, "[3]": {"test_system": "LTB4 formation in rat peritoneal PMN leukocytes", "assay": "Rat Peritoneal Polymorphonuclear (PMN) Leukocyte Assay (inhibition of LTB4 formation)", "type": "cell-based", "conditions": "for IC50: Leukocyte, rat peritoneal PMN, 10 μM A-23187, 2 min preincubation at 37° C."}, "[4]": {"test_system": "Platelet activating factor (PAF)-induced hyperalgesia in the rat paw", "assay": "PAF-Induced Hyperalgesia Assay", "type": "in vivo, rat (female Sprague-Dawley)", "procedure": "Female Sprague-Dawley rats, 35-40 g were fasted overnight. Platelet activating factor, PAF, (L-lecithin B-acetyl O-alkyl) 1 μg/0.1 ml was given by subplantar injection in the rat paw. The compounds to be evaluated were homogenized in Aqueous Vehicle (0.9% benzyl alcohol, 0.5% Tween 80 and 0.4% methylcellulose) and administered orally in a volume of 0.1 ml, 30 minutes prior to PAF.\nAnimals were tested 1, 2, 3 and 4 hours after PAF administration. The vocalization threshold, defined as the pressure (mmHg) needed to evoke a squeak response, was recorded for both the injected and contralateral paw. No animal was subjected to pressure greater than 60 mmHg. Hyperalgesia is defined as a decrease in vocalization threshold as compared to a normal paw. Percent inhibition of hyperalgesia was calculated as the proportion of animals with vocalization thresholds greater than 200% of controls."}, "[5]": {"conditions": "0.5 mg/kg p.o., vehicle 0.4% Tween 80/0.5% Methocel"}, "[6]": {"conditions": "1.5 mg/kg p.o., vehicle 0.4% Tween 80/0.5% Methocel"}, "[7]": {"conditions": "2 mg/kg p.o., vehicle 0.4% Tween 80/0.5% Methocel"}, "[8]": {"conditions": "vehicle 0.4% Tween 80/0.5% Methocel"}, "[9]": {"conditions": "Rattus norvegicus, po, 5 mg/kg p.o., Table III, read-out: Asth. Rat % Inhibition"}, "[10]": {"conditions": "Rattus norvegicus, po, 1.5 mg/kg p.o., Table III, read-out: Asth. Rat % Inhibition"}}, "note": "Structures can show the parent of a compound that is named as a salt.", "data": [{"compound": "CC(=O)OC(C)OC(=O)N1c2ccccc2Sc2cc(O)c3ccccc3c21", "note": "(centres unmarked) [Compound XVIII, Amorphous (4 Conformers), 5-hydroxy-12-(1-acetoxyethoxycarbonyl)-12H-benzo[a]phenothiazine]", "values": [{"measurement": "biological activity over the crystalline material", "setting": "asthmatic rat", "result": "advantageous biological activity over the crystalline material"}, {"measurement": "% Inhibition (Asthmatic Rat Assay)", "setting": "[1]; [5]", "result": 48, "unit": "%"}, {"measurement": "% Inhibition (Asthmatic Rat Assay)", "setting": "[1]; 0.5 mg/kg p.o., vehicle 1% Methocel", "result": 36, "unit": "%"}, {"measurement": "% Inhibition (Asthmatic Rat Assay)", "setting": "[1]; [6]", "result": 52, "unit": "%"}, {"measurement": "% Inhibition (Asthmatic Rat Assay)", "setting": "[1]; 1.5 mg/kg p.o., vehicle 1% Methocel", "result": 59, "unit": "%"}, {"measurement": "% Inhibition (Asthmatic Rat Assay)", "setting": "[1]; [7]", "result": 57, "unit": "%"}, {"measurement": "ED50 (Asthmatic Rat Assay)", "setting": "[1]; [8]", "result": 1.0, "unit": "mg/kg"}, {"measurement": "ED50 (Asthmatic Rat Assay)", "setting": "[1]; vehicle 1% Methocel", "result": 1.0, "unit": "mg/kg"}]}, {"compound": "CC(=O)OC(C)OC(=O)N1c2ccccc2Sc2cc(O)c3ccccc3c21", "note": "(centres unmarked) [Compound XVIII, Crystalline (1 Conformer)] [5-hydroxy-12-(1-acetoxyethoxycarbonyl)-12H-benzo[a]phenothiazine]", "values": [{"measurement": "period of equilibration of the single conformational isomer to a mixture of at least four conformational isomers", "setting": "[2]", "result": "approximately one hour"}, {"measurement": "% Inhibition (Asthmatic Rat Assay)", "setting": "[1]; [5]", "result": 19, "unit": "%"}, {"measurement": "% Inhibition (Asthmatic Rat Assay)", "setting": "[1]; [6]", "result": 49, "unit": "%"}, {"measurement": "% Inhibition (Asthmatic Rat Assay)", "setting": "[1]; [7]", "result": 61, "unit": "%"}, {"measurement": "% Inhibition (Asthmatic Rat Assay)", "setting": "[1]; 2 mg/kg p.o., vehicle 1% Methocel", "result": 28, "unit": "%"}, {"measurement": "% Inhibition (Asthmatic Rat Assay)", "setting": "[1]; 5 mg/kg p.o., vehicle 0.4% Tween 80/0.5% Methocel", "result": 81, "unit": "%"}, {"measurement": "ED50 (Asthmatic Rat Assay)", "setting": "[1]; [8]", "result": 1.5, "unit": "mg/kg"}]}, {"compound": "CC(=O)Oc1cc2c(c3ccccc13)N(C(C)=O)c1ccccc1S2", "note": "[aromatic, Ac, Ac, S, 5-Acetoxy-12-acetyl-12H-benzo[a]phenothiazine]", "values": [{"measurement": "inhibition in vivo at 5 mg/kg", "setting": "[1]; [9]", "result": 47, "unit": "%"}]}, {"compound": "CC(=O)N1c2ccccc2Sc2cc(O)c3ccccc3c21", "note": "[aromatic, Ac, H, S, 12-acetyl-5-hydroxy-12H-benzo[a]phenothiazine]", "values": [{"measurement": "IC50", "setting": "[3]", "result": "1000 to 5000", "unit": "µg/mL"}]}, {"compound": "COc1cc2c(c3ccccc13)N(C(C)=O)c1ccccc1S2", "note": "[aromatic, Ac, Me, S, 12-Acetyl-5-methoxy-12H-benzo[a]phenothiazine]", "values": [{"measurement": "IC50", "setting": "[3]", "result": 5000, "unit": "µg/mL"}]}, {"compound": "CC(=O)Oc1cc2c(c3ccccc13)Nc1ccccc1O2", "note": "[aromatic, H, Ac, O, 5-Acetoxy-12H-benzo[a]phenoxazine]", "values": [{"measurement": "inhibition in vivo at 5 mg/kg", "setting": "[1]; [9]", "result": 44, "unit": "%"}]}, {"compound": "CC(=O)Oc1cc2c(c3ccccc13)Nc1ccccc1S2", "note": "[aromatic, H, Ac, S, 5-acetoxy-12H-benzo[a]phenothiazine]", "values": [{"measurement": "IC50", "setting": "[3]", "result": "25 to 50", "unit": "µg/mL"}, {"measurement": "ED50", "setting": "[4]; Rattus norvegicus, Platelet, po", "result": 0.145, "unit": "mg/kg"}, {"measurement": "ED50", "setting": "[1]; Rattus norvegicus, po, Table III, read-out: Asth. Rat ED50", "result": 4, "unit": "mg/kg"}]}, {"compound": "CC(=O)Oc1cc2c(c3ccccc13)Nc1ccccc1S2(=O)=O", "note": "[aromatic, H, Ac, SO2, 5-Acetoxy-12H-benzo[a]phenothiazine-7,7-dioxide]", "values": [{"measurement": "inhibition in vivo at 5 mg/kg", "setting": "[1]; [9]", "result": 42, "unit": "%"}]}, {"compound": "CC(C)(C)C(=O)Oc1cc2c(c3ccccc13)Nc1ccccc1S2", "note": "[aromatic, H, COC(CH3)3, S, 5-Trimethylacetoxy-12H-benzo[a]phenothiazine]", "values": [{"measurement": "inhibition in vivo at 5 mg/kg", "setting": "[1]; [9]", "result": 54, "unit": "%"}]}, {"compound": "NCC(=O)Oc1cc2c(c3ccccc13)Nc1ccccc1S2", "note": "[aromatic, H, COCH2 NH2 .HCl, S, 5-aminoacetoxy-12H-benzo[a]phenothiazine-hydrochloride salt]", "values": [{"measurement": "inhibition in vivo at 1.5 mg/kg", "setting": "[1]; [10]", "result": 21, "unit": "%"}, {"measurement": "inhibition in vivo at 3 mg/kg", "setting": "[1]; Rattus norvegicus, po, 3 mg/kg p.o., Table III, read-out: Asth. Rat % Inhibition", "result": 44, "unit": "%"}]}, {"compound": "O=C(Oc1cc2c(c3ccccc13)Nc1ccccc1S2)c1ccccc1", "note": "[aromatic, H, COPh, S, 5-Benzoyloxy-12H-benzo[a]phenothiazine]", "values": [{"measurement": "inhibition in vivo at 5 mg/kg", "setting": "[1]; [9]", "result": 18, "unit": "%"}]}, {"compound": "Oc1cc2c(c3ccccc13)Nc1ccccc1S2", "note": "[aromatic, H, H, S, 5-hydroxy-12H-benzo[a]phenothiazine]", "values": [{"measurement": "IC50", "setting": "[3]", "result": "20 to 100", "unit": "µg/mL"}, {"measurement": "inhibition in vivo at 1.5 mg/kg", "setting": "[1]; [10]", "result": 54, "unit": "%"}]}, {"compound": "O=S1(=O)c2ccccc2Nc2c1cc(O)c1ccccc21", "note": "[aromatic, H, H, SO2, 5-Hydroxy-12H-benzo[a]phenothiazine-7,7-dioxide]", "values": [{"measurement": "inhibition in vivo at 5 mg/kg", "setting": "[1]; [9]", "result": 67, "unit": "%"}]}, {"compound": "CCOP(=O)(OCC)Oc1cc2c(c3ccccc13)Nc1ccccc1S2", "note": "[aromatic, H, PO(OEt)2, S, Diethyl 12H-benzo[a]phenothiazin-5-yl phosphate]", "values": [{"measurement": "PMN IC50", "setting": "[3]", "result": "200 to 1000", "unit": "µg/mL"}]}, {"compound": "CC(=O)Oc1cc2c(c3ccccc13)N(C)c1ccccc1S2", "note": "[aromatic, Me, Ac, S, 5-acetoxy-12-methyl-12H-benzo[a]phenothiazine]", "values": [{"measurement": "IC50", "setting": "[3]", "result": 50, "unit": "µg/mL"}, {"measurement": "PAF Induced Hyperalgesia % Inhibition", "setting": "[4]; 1 mg/kg p.o.", "result": "30-60%"}]}, {"compound": "COc1cc2c(c3ccccc13)N(C)c1ccccc1S2", "note": "[aromatic, Me, Me, S, 5-methoxy-12-methyl-12H-benzo[a]phenothiazine]", "values": [{"measurement": "IC50", "setting": "[3]", "result": 5000, "unit": "µg/mL"}, {"measurement": "PAF Induced Hyperalgesia % Inhibition", "setting": "[4]; 1 mg/kg p.o.", "result": 40, "unit": "%"}, {"measurement": "PAF Induced Hyperalgesia % Inhibition", "setting": "[4]; 3 mg/kg p.o.", "result": 80, "unit": "%"}]}, {"compound": "CC(=O)OC(C)OC(=O)N1c2ccccc2Sc2cc(O)c3ccccc3c21", "note": "(centres unmarked) [aromatic, drawing 52, H, S, 5-hydroxy-12-(1-acetoxyethoxycarbonyl)-12H-benzo[a]phenothiazine]", "values": [{"measurement": "PAF Induced Hyperalgesia % Inhibition", "setting": "[4]; 3 mg/kg p.o.", "result": 60, "unit": "%"}, {"measurement": "inhibition in vivo at 1.5 mg/kg", "setting": "[1]; [10]", "result": 49, "unit": "%"}]}]}
